This is an account of results in patent publication US20250277785A1, “MICROFLUIDIC DEVICES FOR EVALUATING FIBROSIS IN MATERIAL IMPLANTATION AND CANCER” (THE UNITED STATES OF AMERICA AS REPRESENTED BY THE …, priority 2022, published 2025).

In assay [1] the test system is L929 cells and primary mouse skin fibroblasts. The experiment in a line: Scar-in-a-jar immunostaining, effect of L-ascorbic acid type. The format is cell-based. The following applies: cell type not specified for this statement. On the procedure: (§1) Inducing collagen deposition by fibroblasts in a two-dimensional model was studied. To determine whether L929 fibroblasts would deposit collagen in response to stimuli, well plate experiments were conducted following a protocol described in Good et al., “A High Content, Phenotypic ‘Scar-In-A-Jar’ Assay for Rapid Quantification of Collagen Fibrillogenesis Using Disease-Derived Pulmonary Fibroblasts,” BMC Biomedical Engineering, 1:14, 1-10 (2019), which is incorporated by reference herein in its entirety. Immunostaining experiments were carried out on L929 cells and primary mouse skin fibroblasts exposed to media containing L-ascorbic acid, FICOLL®, and TGF-β1. […] These findings indicate the relevance of and effects of cell type and L-ascorbic acid type on in vitro extracellular matrix deposition.

For a further assay, the system named is WI-38 human lung cells. The assay is described as follows: Picrosirius red staining of decellularized extracellular matrix. Format: cell-based. The following applies: Permanox plastic 4-chamber slides, 250,000 cells/chamber, with vs without L-ascorbic acid. On the procedure:
One method that can be used for visualization and quantification of collagen deposition in the microfluidic device is picrosirius red staining. […] Cells were grown in chambers with or without a fibronectin coating and with or without L-asorbic acid. […] In the absence of a fibronectin coating, no visible collagen deposition remained after 14-15 minutes of decellularization. […] Cells appear to deposit collagen fibers that are retained, even in the absence of a fibronectin coating, with a short decellularization time of five minutes. […]

Assay [2] relates to primary mouse skin fibroblasts. The assay is described as follows: Scar-in-a-jar immunostaining, collagen deposition by fibroblasts in 2D. Format: cell-based. The following applies: media containing L-ascorbic acid, FICOLL and TGF-β1. As to the method:
as §1

The subject of the next assay is L929 cells. The description is as above. Format: cell-based, mouse. The following applies: media containing L-ascorbic acid, FICOLL and TGF-β1. As to the method:
as §1

The test system of another assay is RAW264.7 macrophages. The experiment in a line: Griess assay of nitrite production in media of cultured macrophages. The format is cell-based, mouse. The following applies: LPS stimulation of macrophages, 2D culture. As to the method: (§2) L929 mouse fibroblasts and RAW264.7 mouse macrophages were fluorescently labelled with red and green […]® (Thermo Fisher Scientific) dyes respectively. Extensive studies were conducted to optimize cell seeding density, culture times, and biomaterial implantation. Cells were co-cultured two-dimensionally or within microfluidic devices described in Example 1, after which cancer spheroids or alginate-based biomaterials were implanted within the two-dimensional cultures and within the microfluidic devices. Immunostaining, fluorescence microscopy, Griess assays, and histological analysis were used to evaluate immune cell activation and fibrosis formation in response to the spheroids and implants. Griess Assays were performed on media collected from cultured cells. […] Co-culture of RAW264.7 and L929 cells were visualized with […]® dyes. […] F-actin visualization for RAW264.7 cells treated with LPS was performed. […] Co-culture of L929 and RAW264.7 cells was performed in the microfluidic device. L929 cells were cultured in 3D within the Matrigel channel, while macrophages were introduced in 2D from an adjacent channel. After 24 hours of co-culture, the cells were primarily retained within their respective channels.

A further assay deals with RAW264.7 cells. The experiment in a line: F-actin visualization of macrophage morphology. Format: cell-based, mouse. The following applies: increasing concentrations of LPS. As to the method: as §2

Consider `O=C1O[C@H]([C@@H](O)CO)C(O)=C1O` [L-ascorbic acid], for which the “effect of the type of L-ascorbic acid on Collagen I deposition” value in assay [1] is given as “had some effects”. In addition, the “collagen deposition (picrosirius red)” value in the assay with WI-38 human lung cells is on record as “increase in collagen deposition”.

As to “TGF-β1: transforming growth factor beta 1, stimulus for collagen deposition”, in assay [2], the “Collagen I deposition in response to TGF-β1 treatment” value is given as “Some increases” and the “α-SMA expression in response to TGF-β1 treatment” value is on record as “Some increases”. Further, in the assay with L929 cells, the “Collagen I deposition in response to TGF-β1 treatment” value is reported as “did not have increased Collagen I deposition” and the α-SMA expression result is “no α-SMA expression”.

lipopolysaccharide [LPS]: in the assay with RAW264.7 macrophages, the “macrophage activation, as indicated by nitrite production” value is on record as “led to macrophage activation”. In the assay on RAW264.7 cells, the “morphological changes (F-actin visualization)” value is given as “Morphological changes were observed”.
